Measurements as given in patent US8796256B2 (Janssen Pharmaceutica NV, priority 2010, dated 2014).

Target: T1, ERR1 (also known as ERR-α or ERR-1) (Homo sapiens, UniProt P11474)
T1 sequence (P11474 193-421 limits assumed): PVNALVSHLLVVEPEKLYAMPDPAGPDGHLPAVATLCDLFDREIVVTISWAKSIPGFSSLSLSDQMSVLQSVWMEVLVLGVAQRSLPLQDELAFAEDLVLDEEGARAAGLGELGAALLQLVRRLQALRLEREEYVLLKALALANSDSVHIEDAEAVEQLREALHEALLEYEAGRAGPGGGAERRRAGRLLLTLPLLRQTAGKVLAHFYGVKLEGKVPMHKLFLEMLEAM
Test: TR-FRET assay (disruption of co-activator peptide binding to ERR1 LBD)
Format: biochemical
Conditions: 6 nM 6His-ERR1LBD, 6 nM GST-SRC-2 peptide; average of 3 independent experiments
How it was run: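 His-tagged ERR1 ligand-binding domain and GST-labelled SRC-2 peptide, each 6 nM, equilibrated at 25° C for 4-18 h in Tris pH 8/Hepes/KCl/DTT/delipidated BSA buffer. Compound-induced loss of co-activator binding read as Eu cryptate→XL665 energy transfer; values from hyperbolic curve fits averaged over 3 independent runs.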

Row | SMILES | EC50
1 | CN1CC(N2C(=O)S/C(=C\c3ccc4c(cnn4Cc4ccc(Cl)cc4C(F)(F)F)c3)C2=O)C1 [Compound 133, (5Z)-5-({1-[4-Chloro-2-(trifluoromethyl)benzyl]-1H-indazol-5-yl}methylidine)-3-(1-methylazetidin-3-yl)-1,3-thiazolidine-2,4-dione] | 20 nM
2 | CN1CCC(CN2C(=O)S/C(=C\c3ccc4c(cnn4Cc4ccc(Cl)cc4C(F)(F)F)c3)C2=O)CC1 [Compound 134, (5Z)-5-({1-[4-Chloro-2-(trifluoromethyl)benzyl]-1H-indazol-5-yl}methylidene)-3-[(1-methylpiperidin-4-yl)methyl]-1,3-thiazolidine-2,4-dione] | 45 nM
3 | CN1CCC(N2C(=O)S/C(=C\c3ccc4c(cnn4Cc4ccc(Cl)cc4C(F)(F)F)c3)C2=O)CC1 [Compound 135, (5Z)-5-({1-[4-Chloro-2-(trifluoromethyl)benzyl]-1H-indazol-5-yl}methylidene)-3-(1-methylpiperidin-4-yl)-1,3-thiazolidine-2,4-dione] | 19 nM
4 | CN1CCCC(N2C(=O)S/C(=C\c3ccc4c(cnn4Cc4ccc(Cl)cc4C(F)(F)F)c3)C2=O)C1 (centres unmarked) [Compound 136, (5Z)-5-({1-[4-Chloro-2-(trifluoromethyl)benzyl]-1H-indazol-5-yl}methylidene)-3-(1-methylpiperidin-3-yl)-1,3-thiazolidine-2,4-dione] | 35 nM
5 | O=C1S/C(=C\c2ccc3c(cnn3Cc3ccc(Cl)cc3C(F)(F)F)c2)C(=O)N1Cc1ccccn1 [Compound 137, (5Z)-5-({1-[4-Chloro-2-(trifluoromethyl)benzyl]-1H-indazol-5-yl}methylidene)-3-(pyridin-2-ylmethyl)-1,3-thiazolidine-2,4-dione] | 66 nM
6 | O=C1S/C(=C\c2ccc3c(cnn3Cc3ccc(Cl)cc3C(F)(F)F)c2)C(=O)N1Cc1cc(O)no1 [Compound 138, (5Z)-5-({1-[4-Chloro-2-(trifluoromethyl)benzyl]-1H-indazol-5-yl}methylidene)-3-[(3-hydroxyisoxazol-5-yl)methyl]-1,3-thiazolidine-2,4-dione] | 42 nM
7 | Cn1cncc1CN1C(=O)S/C(=C\c2ccc3c(cnn3Cc3ccc(Cl)cc3C(F)(F)F)c2)C1=O [Compound 139, (5Z)-5-({1-[4-Chloro-2-(trifluoromethyl)benzyl]-1H-indazol-5-yl}methylidene)-3-[(1-methyl-1H-imidazol-5-yl)methyl]-1,3-thiazolidine-2,4-dione] | 16 nM
8 | CN1CCCC1CCN1C(=O)S/C(=C\c2ccc3c(cnn3Cc3ccc(Cl)cc3C(F)(F)F)c2)C1=O (centres unmarked) [Compound 140, (5Z)-5-({1-[4-Chloro-2-(trifluoromethyl)benzyl]-1H-indazol-5-yl}methylidene)-3-[2-(1-methylpyrrolidin-2-yl)ethyl]-1,3-thiazolidine-2,4-dione] | 32 nM
9 | CCOC(=O)[C@@H]1CCC[C@H]1N1C(=O)S/C(=C\c2ccc3c(cnn3Cc3ccc(Cl)cc3C(F)(F)F)c2)C1=O [Compound 141, Ethyl (1R,2R)-2-[(5Z)-5-({1-[4-chloro-2-(trifluoromethyl)benzyl]-1H-indazol-5-yl}methylidene)-2,4-dioxo-1,3-thiazolidin-3-yl]cyclopentanecarboxylate] | 183 nM
10 | O=C(O)[C@@H]1CCC[C@H]1N1C(=O)S/C(=C\c2ccc3c(cnn3Cc3ccc(Cl)cc3C(F)(F)F)c2)C1=O [Compound 142, (1R,2R)-2-[(5Z)-5-({1-[4-Chloro-2-(trifluoromethyl)benzyl]-1H-indazol-5-yl}methylidene)-2,4-dioxo-1,3-thiazolidin-3-yl]cyclopentanecarboxylic acid] | 38 nM
11 | CN1CC[C@@H](N2C(=O)S/C(=C\c3ccc4c(cnn4Cc4ccc(Cl)cc4C(F)(F)F)c3)C2=O)C1 [Compound 144, (5Z)-5-({1-[4-Chloro-2-(trifluoromethyl)benzyl]-1H-indazol-5-yl}methylidene)-3-[(3R)-1-methylpyrrolidin-3-yl]-1,3-thiazolidine-2,4-dione] | 31 nM
12 | O=C1S/C(=C\c2ccc3c(cnn3Cc3ccc(Cl)cc3C(F)(F)F)c2)C(=O)N1C[C@@H]1CCCN1 [Compound 145, (5Z)-5-({1-[4-Chloro-2-(trifluoromethyl)benzyl]-1H-indazol-5-yl}methylidene)-3-[(2S)-pyrrolidin-2-ylmethyl]-1,3-thiazolidine-2,4-dione] | 27 nM
13 | COCCN1CCC(N2C(=O)S/C(=C\c3ccc4c(cnn4Cc4ccc(Cl)cc4C(F)(F)F)c3)C2=O)CC1 [Compound 147, (5Z)-5-({1-[4-Chloro-2-(trifluoromethyl)benzyl]-1H-indazol-5-yl}methylidene)-3-[1-(2-methoxyethyl)piperidin-4-yl]-1,3-thiazolidine-2,4-dione] | 36 nM
14 | O=C1S/C(=C\c2ccc3c(cnn3Cc3ccc(Cl)cc3C(F)(F)F)c2)C(=O)N1C1CCN(CC(F)(F)F)CC1 [Compound 150, (5Z)-5-({1-[4-Chloro-2-(trifluoromethyl)benzyl]-1H-indazol-5-yl}methylidene)-3-[1-(2,2,2-trifluoroethyl)piperidin-4-yl]-1,3-thiazolidine-2,4-dione] | 57 nM
15 | O=C(O)CN1CCC[C@H]1CN1C(=O)S/C(=C\c2ccc3c(cnn3Cc3ccc(Cl)cc3C(F)(F)F)c2)C1=O [Compound 151, [(2S)-2-{[(5Z)-5-({1-[4-Chloro-2-(trifluoromethyl)benzyl]-1H-indazol-5-yl}methylidene)-2,4-dioxo-1,3-thiazolidin-3-yl]methyl}pyrrolidin-1-yl]acetic acid] | 30 nM
16 | COCCN1CCC[C@H]1CN1C(=O)S/C(=C\c2ccc3c(cnn3Cc3ccc(Cl)cc3C(F)(F)F)c2)C1=O [Compound 152, (5Z)-5-({1-[4-Chloro-2-(trifluoromethyl)benzyl]-1H-indazol-5-yl}methylidene)-3-{[(2S)-1-(2-methoxyethyl)pyrrolidin-2-yl]methyl}-1,3-thiazolidine-2,4-dione] | 27 nM
17 | O=C1S/C(=C\c2ccc3c(cnn3Cc3ccc(Cl)cc3C(F)(F)F)c2)C(=O)N1C[C@@H]1CCCN1CCO [Compound 153, (5Z)-5-({1-[4-Chloro-2-(trifluoromethyl)benzyl]-1H-indazol-5-yl}methylidene)-3-{[(2S)-1-(2-hydroxyethyl)pyrrolidin-2-yl]methyl}-1,3-thiazolidine-2,4-dione] | 17 nM
18 | CC[C@H](N)CN1C(=O)S/C(=C\c2ccc3c(cnn3Cc3ccc(Cl)cc3C(F)(F)F)c2)C1=O [Compound 154, 3-[(2S)-2-Aminobutyl]-(5Z)-5-({1-[4-chloro-2-(trifluoromethyl)benzyl]-1H-indazol-5-yl}methylidene)-1,3-thiazolidine-2,4-dione] | 17 nM
19 | CC[C@@H](CN1C(=O)S/C(=C\c2ccc3c(cnn3Cc3ccc(Cl)cc3C(F)(F)F)c2)C1=O)NS(C)(=O)=O [Compound 156, N-[(1S)-1-{[(5Z)-5-({1-[4-Chloro-2-(trifluoromethyl)benzyl]-1H-indazol-5-yl}methylidene)-2,4-dioxo-1,3-thiazolidin-3-yl]methyl}propyl] methanesulfonamide] | 27 nM
20 | C[C@@H](CN1C(=O)S/C(=C\c2ccc3c(cnn3Cc3ccc(Cl)cc3C(F)(F)F)c2)C1=O)NS(C)(=O)=O [Compound 157, N-{(1S)-2-[(5Z)-5-({1-[4-Chloro-2-(trifluoromethyl)benzyl]-1H-indazol-5-yl}methylidene)-2,4-dioxo-1,3-thiazolidin-3-yl]-1-methylethyl} methanesulfonamide] | 23 nM
21 | CS(=O)(=O)NCCN1C(=O)S/C(=C\c2ccc3c(cnn3Cc3ccc(Cl)cc3C(F)(F)F)c2)C1=O [Compound 158, N-{2-[(5Z)-5-({1-[4-Chloro-2-(trifluoromethyl)benzyl]-1H-indazol-5-yl}methylidene)-2,4-dioxo-1,3-thiazolidin-3-yl]ethyl}methanesulfonamide] | 21 nM
22 | CS(=O)(=O)CCN1CCC[C@H]1CN1C(=O)S/C(=C\c2ccc3c(cnn3Cc3ccc(Cl)cc3C(F)(F)F)c2)C1=O [Compound 159, (5Z)-5-({1-[4-Chloro-2-(trifluoromethyl)benzyl]-1H-indazol-5-yl}methylidene)-3-({(2S)-1-[2-(methylsulfonyl)ethyl]pyrrolidin-2-yl}methyl)-1,3-thiazolidine-2,4-dione] | 87 nM
23 | CC(C)(C)NS(=O)(=O)CN1C(=O)S/C(=C\c2ccc3c(cnn3Cc3ccc(Cl)cc3C(F)(F)F)c2)C1=O [Compound 160, N-tert-Butyl-1-[(5Z)-5-({1-[4-chloro-2-(trifluoromethyl)benzyl]-1H-indazol-5-yl}methylidene)-2,4-dioxo-1,3-thiazolidin-3-yl]methanesulfonamide] | 77 nM
24 | N[C@H](CN1C(=O)S/C(=C\c2ccc3c(cnn3Cc3ccc(Cl)cc3C(F)(F)F)c2)C1=O)c1ccccc1 [Compound 161, (5Z)-3-[(2S)-2-Amino-2-phenylethyl]-5-({1-[4-chloro-2-(trifluoromethyl)benzyl]-1H-indazol-5-yl}methylidene)-1,3-thiazolidine-2,4-dione] | 73 nM
25 | CC(C)[C@H](N)CN1C(=O)S/C(=C\c2ccc3c(cnn3Cc3ccc(Cl)cc3C(F)(F)F)c2)C1=O [Compound 162, (5Z)-3-[(2S)-2-Amino-3-methylbutyl]-5-({1-[4-chloro-2-(trifluoromethyl)benzyl]-1H-indazol-5-yl}methylidene)-1,3-thiazolidine-2,4-dione] | 32 nM
26 | O=C1S/C(=C\c2ccc3c(cnn3Cc3ccc(Cl)cc3C(F)(F)F)c2)C(=O)N1CCN1CCNCC1 [Compound 163, (5Z)-5-({1-[4-Chloro-2-(trifluoromethyl)benzyl]-1H-indazol-5-yl}methylidene)-3-(2-piperazin-1-ylethyl)-1,3-thiazolidine-2,4-dione] | 38 nM
